According to US5455356A, “Fungicidal 1-aryl-1-[α-(triazolyl)alkyl]-1-silacycloalkanes and their preparation methods” (priority 1993, dated 1995):

What was measured:
Type in all cases: cell-based
Phytophthora capsisi = assay: In vitro mycelial/spore growth on potato-sucrose-agar, percent disease control (PC); conditions: read-out: % controlled, PC
Experimental: (§1) The compounds of this invention were dissolved respectively in acetone in an amount equal to 10% of the final volume and then in purified water at the concentration of 100 ppm and 50 ppm.
(§2) Each of the solution was mixed with potato-sucrose-agar medium in 6" petri dish and one of the fungi was spotted at the center of the dish. The dish was incubated in growth room for several days. The percent disease control was derived from the radii of spore growth. The screening tests in vitro condition are well-known to those skilled in the art.
(§3) The following fungi were used for the screening.
2) Phy. ca.; Phytophthora capsisi

Botryosphaeri = assay: In vitro mycelial/spore growth on potato-sucrose-agar, percent disease control (BD); conditions: read-out: % controlled, BD
Experimental: as §1, §2, §3
4) Bo. do (Ma); Botryosphaeri

GC = assay: In vitro mycelial/spore growth on potato-sucrose-agar, percent disease control (GC); conditions: read-out: % controlled, GC; for inhibition of growth at 50 ppm: GC
Experimental: as §1, §2, §3

Pyricalaria oryzae = assay: In vitro mycelial/spore growth on potato-sucrose-agar, percent disease control (PO); conditions: read-out: % controlled, PO
Experimental: as §1, §2, §3
6) Py. or.; Pyricalaria oryzae

Rhizoctonia solani = assay: In vitro mycelial/spore growth on potato-sucrose-agar, percent disease control (RS, first column); conditions: read-out: % controlled, RS
Experimental: as §1, §2, §3
7) Rhi. so.; Rhizoctonia solani

Fusarium moniliforme = assay: In vitro mycelial/spore growth on potato-sucrose-agar, percent disease control (FM); conditions: Fusarium verticillioides, Fusarium moniliforme, read-out: % controlled, FM
Experimental: as §1, §2, §3
8) Fu. mo.; Fusarium moniliforme

Rhizopus sp. = assay: In vitro mycelial/spore growth on potato-sucrose-agar, percent disease control (RS, second column); conditions: read-out: % controlled, RS; for inhibition of growth at 50 ppm: Rhizopus sp.; for inhibition of growth at 200 ppm: Rhizopus
Experimental: as §1, §2, §3
9) Rhi. sp.; Rhizopus sp.

Botritis cinerea = assay: In vitro mycelial/spore growth on potato-sucrose-agar, percent disease control (BC); conditions: read-out: % controlled, BC
Experimental: as §1, §2, §3
10) Bo. ci.; Botritis cinerea

SMILES	inhibition of growth at 50 ppm (Phytophthora capsisi) [%]	inhibition of growth at 200 ppm (Phytophthora capsisi) [%]	inhibition of growth at 50 ppm (Botryosphaeri) [%]	inhibition of growth at 200 ppm (Botryosphaeri) [%]	inhibition of growth at 50 ppm (GC) [%]	inhibition of growth at 200 ppm (GC) [%]	inhibition of growth at 50 ppm (Pyricalaria oryzae) [%]	inhibition of growth at 200 ppm (Pyricalaria oryzae) [%]	inhibition of growth at 50 ppm (Rhizoctonia solani) [%]	inhibition of growth at 200 ppm (Rhizoctonia solani) [%]	inhibition of growth at 50 ppm (Fusarium moniliforme) [%]	inhibition of growth at 200 ppm (Fusarium moniliforme) [%]	inhibition of growth at 50 ppm (Rhizopus sp.) [%]	inhibition of growth at 200 ppm (Rhizopus sp.) [%]	inhibition of growth at 50 ppm (Botritis cinerea) [%]	inhibition of growth at 200 ppm (Botritis cinerea) [%]
Clc1ccc([Si]2(Cn3cncn3)CCCC2)c(Cl)c1 [1-(2,4-dichlorophenyl)-1-(1H-1,2,4-triazole-1-yl)methyl-1-silacyclopentane]	72	79	97	100	100	100	100	100	65	100	100	100	59	70	99	100
CCOc1ccc([Si]2(Cn3cncn3)CCCC2)cc1 [1-(4-ethoxyphenyl)-1-(1H-1,2,4-triazole-1-yl)methyl-1-silacyclopentane]	40	100	82	89	100	100	100	100	72	100	68	79	66	77	70	74
CC(n1cncn1)[Si]1(c2ccc(Cl)cc2)CCCC1 (stereo not drawn) [1-(4-chlorophenyl)-1-[α-(1H-1,2,4-triazole-1-yl)ethyl]-1-silacyclopentane]	30	100	100	100	100	100	100	100	100	100	100	100	42	60	100	100
FC(F)(F)c1ccc([Si]2(Cn3cncn3)CCCC2)cc1 [1-(4-trifluoromethyl)-1-(1H-1,2,4-triazole-1-yl)methyl-1-silacyclopentane]	70	79	96	100	100	100	100	100	95	99	79	100	69	72	96	100
CCOc1ccc([Si]2(C(C)n3cncn3)CCCCC2)cc1 (stereo not drawn) [1-(4-ethoxyphenyl)-1-[α-(1H-1,2,4-triazole-1-yl)ethyl]-1-silacyclohexane]	45	75	92	100	100	100	100	100	97	100	65	98	34	56	65	98
CC(n1cncn1)[Si]1(c2ccc(C(F)(F)F)cc2)CCCCC1 (stereo not drawn) [1-(4-trifluoromethyl)-1-[α-(1H-1,2,4-triazole-1-yl)ethyl]-1-silacyclohexane]	39	78	100	100	100	100	100	100	99	100	58	99	47	56	66	99
CC(n1cncn1)[Si]1(c2ccc(C(F)(F)F)cc2)CCCC1 (stereo not drawn) [1-(4-trifluoromethyl)-1-[α-(1H-1,2,4-triazole-1-yl)ethyl]-1-silacyclopentane]	86	98	90	100	100	100	100	100	92	100	73	99	56	75	94	100
Fc1ccc([Si]2(Cn3cncn3)CCCC2)c(F)c1 [1-(2,4-difluorophenyl)-1-(1H-1,2,4-triazole-1-yl)methyl-1-silacyclopentane]	32	85	100	100	100	100	100	100	76	100	100	100	63	72	100	100
